Data on one molecule can be found in patent US20090203685A1, “ANTI-PROLIFERATIVE COMPOUNDS FROM A 3-ARYL-COUMARINE OR 3-ARYL-QUINOLIN-2-ONE AND USES THEREOF” (EOS (ETHICAL ONCOLOGY SCIENCE) S.P.A., priority 2006, published 2009).

The test system of one data set is MRC5. Put plainly: Cell cycle analysis, MRC5. The data set is classed as cell-based. As to conditions: 500 nM. The protocol: (§1) The cells are pelleted by gentle centrifugation 1200 rpm/5 min/4° C., then the supernatant is discarded and the cells are fixed with 1 mL of PBS/Ethanol 70% overnight at −20° C. The tubes are then centrifuged during 5 minutes at 1200 rpm and the supernatant is removed. The pellet is then re-suspended in 450 μL of PBS before 50 μL of RNAse (1 mg/mL) and 5 μL of propidium iodide (2 mg/mL) are added. Each tube is left 30 minutes at 37° C. and immediately analysed by flow cytometry after incubation.
(§2) A biparametric dot plot representation FL3 peak vs FL3 integer is plotted and the cells located on the diagonal are gated and analysed on a histogram representing the number of cells as a function of the FL3 peak.
(§3) To assess the relative position of cursors defining relative proportion of cells in subG1, G1, S or G2 phase of the cell cycle, G1 and G2 peaks are to be defined first:
(§4) The G1 peak is defined as the major peak in absence of treatment (generally X=200);
(§5) The G2 peak is centered on the value which is twice the value of the G1 peak (generally X=400).
(§6) Cells in subG1 phase are plotted in the part of the histogram preceding the G1 peak (generally X<200) and cells in S phase are enclosed in the area between the G1 and G2 peaks.
(§7) On this graphic, subG1, G1, S and G2/M phases of the cell cycle can thus be defined.
(§8) Viability and cell cycle profile, tested with compound (01), at 500 nM: […]

A short description of data set [1]: Viability (propidium iodide staining), NCI-H460. The data set is classed as cell-based. As to conditions: human, NCI-H460 cells (lung), NCI-H460 lung (NSCLC), 500 nM. The protocol: (§9) Propidium iodide (PI) cannot normally cross the cell membrane; it is thus excluded by viable cells but not from dying or dead cells, having a damaged membrane, where it intercalates into double-stranded nucleic acids and fluoresces when excited at 488 nm.
(§10) The cells are pelleted by gentle centrifugation 1200 rpm/5 min/4° C., then the supernatant is discarded and replaced by 1 mL of fresh medium. One hundred microliters of propidium iodide (40 μg/mL) are added to 400 μL of the cell suspension in a FACS tube and viability is measured by flow cytometry as the percentage of cells whose fluorescence recorded on FL-3 channel is comprised between 0 and 2.
as §8

Data set [2] can be described thus: Viability (propidium iodide staining), Jurkat. The data set is classed as cell-based. As to conditions: human, Jurkat cells, 500 nM. The protocol:
as §9, §10, §8

The target of data set [3] is T1, interaction between 6×His-Bcl-xL and GST-BF8 (Homo sapiens, UniProt Q07817).
T1 construct: made in house; host or cells: E. coli
T1 sequence (Q07817 whole entry): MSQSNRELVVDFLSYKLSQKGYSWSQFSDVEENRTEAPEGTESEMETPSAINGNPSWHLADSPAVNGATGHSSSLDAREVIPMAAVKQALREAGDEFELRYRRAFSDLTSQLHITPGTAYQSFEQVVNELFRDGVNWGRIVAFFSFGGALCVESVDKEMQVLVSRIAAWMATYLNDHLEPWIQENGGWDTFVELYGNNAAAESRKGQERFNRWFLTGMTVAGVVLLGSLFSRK
Briefly: Pull down assay, Bcl-xL/BF8 in vitro interaction. The data set is classed as binding. As to conditions: 50 μM, 5% DMSO; Western blot. The protocol:
FIG. 3: Inhibition of the interaction between Bcl-xL and BF8, a peptide aptamer that targets the hydrophobic groove of BCL-2 family members. […]
C+: 6×His-Bcl-xL captured by GST-BF8, in presence of 5% DMSO. (02): 6×His-Bcl-xL captured by GST-BF8, in presence of 50 μM of compound 02 (in 5% DMSO). (01): 6×His-Bcl-xL captured by GST-BF8, in presence of 50 μM of compound 01 (in 5% DMSO).
A peptide aptamer (dubbed BF8) has been selected against the anti-apoptotic protein Bfl1, member of the BCL-2 family. […] Two lines of evidence indicate that BF8 binds the hydrophobic groove of anti-apoptotic BCL-2-like proteins. First, the amino-acid sequence of its variable region bears similarities with the sequence of the BH3 domains of pro-apoptotic members of the BCL-2 family (such as Bak or Bax), known to bind the anti-apoptotic proteins via this hydrophobic groove. Second, BF8 no longer binds a mutated variant of Bfl-1 that bears an amino-acid substitution within the said hydrophobic groove.
A Bcl-xL/BF8 in vitro interaction assay was developed to examine the capacity of the compounds of the invention to disrupt this interaction by competition with the peptide aptamer. 6×His-Bcl-xL and GST-BF8 recombinant fusion proteins were expressed in E. coli and purified using affinity chromatography. […]

The next data set has as its system A375. Briefly: Cell cycle analysis, A375. The data set is classed as cell-based. The note with it: 500 nM. The protocol:
as §1, §2, §3, §4, §5, §6, §7, §8

Data set [4] can be described thus: Viability (propidium iodide staining), CEM. The data set is classed as cell-based. The note with it: human, CEM cells (lymphoid), 500 nM. The protocol:
as §9, §10, §8

The structures appear in SMILES notation.

Usually viability stands for a read-out of living cells in per cent, often relative to untreated cells. For the molecule `COc1cc(NC(=S)NC(=O)/C=C/c2ccco2)ccc1-c1cc2ccccc2oc1=O` [Compound 01, (2E)-3-(2-furyl)-N-({[3-methoxy-4-(2-oxo-2H-chromen-3-yl)phenyl]amino}carbonothioyl)acrylamide], the “Cell cycle profile - 72 h” value is reported as “G2/M accumulation” in the data set with MRC5, “G2/M accumulation” in the data set on A375 (G2/M phase fraction) and “Strong sub-G1” with A375 (sub-G1 fraction). Moreover, the viability at 48 h, 0.5 µM was found to be 80% in data set [1] (48 h), 4% in data set [2] (48 h) and 10% in data set [4] (48 h). Moreover, the figures for the viability at 72 h, 0.5 µM in data set [1] (72 h), in data set [2] (72 h) and in data set [4] (72 h) were 80%, 1% and 2%, respectively. Besides, in data set [3], the “Inhibition of the in vitro interaction between 6×His-Bcl-xL and GST-BF8” value is reported as “inhibit”.
